ChEMBL document CHEMBL1275440, “In vitro activity of telavancin against resistant gram-positive bacteria” (2008)
Converted amounts (≈) assume the structure as drawn. The source made the active and inactive calls. The calls are words filed in the database; no cut-off is given here.

What was measured:
Enterococcus faecium [1] = assay: Antibacterial activity against vancomycin resistant Enterococcus faecium VanB clinical isolate assessed as susceptibility level by broth microdilution method; format: functional
Enterococcus faecium [2] = assay: Antibacterial activity against vancomycin resistant Enterococcus faecium VanA clinical isolate assessed as susceptibility level by broth microdilution method; format: functional
Enterococcus faecalis [3] = assay: Antibacterial activity against vancomycin resistant Enterococcus faecalis VanB clinical isolate assessed as susceptibility level by broth microdilution method; format: functional
Enterococcus faecalis [4] = assay: Antibacterial activity against vancomycin resistant Enterococcus faecalis VanA clinical isolate assessed as susceptibility level by broth microdilution method; format: functional
[5] = system: Staphylococcus saprophyticus; assay: Antibacterial activity against methicillin resistant coagulase-negative Staphylococcus saprophyticus clinical isolate assessed as susceptibility level by broth microdilution method; format: functional
[6] = Antibacterial activity against methicillin resistant coagulase-negative Staphylococcus hominis subsp. novobiosepticus clinical isolate assessed as susceptibility level by broth microdilution method; format: functional
[7] = system: Staphylococcus haemolyticus; assay: Antibacterial activity against methicillin resistant coagulase-negative Staphylococcus haemolyticus clinical isolate assessed as susceptibility level by broth microdilution method; format: functional
Staphylococcus capitis [8] = assay: Antibacterial activity against methicillin resistant coagulase-negative Staphylococcus capitis clinical isolate assessed as susceptibility level by broth microdilution method; format: functional
[9] = system: Staphylococcus auricularis; assay: Antibacterial activity against methicillin resistant coagulase-negative Staphylococcus auricularis clinical isolate assessed as susceptibility level by broth microdilution method; format: functional
[10] = system: Staphylococcus epidermidis; assay: Antibacterial activity against methicillin resistant Staphylococcus epidermidis clinical isolate assessed as susceptibility level by broth microdilution method; format: functional
Staphylococcus aureus [11] = assay: Antibacterial activity against methicillin resistant Staphylococcus aureus clinical isolate assessed as susceptibility level by broth microdilution method; format: functional
Enterococcus faecium [12] = assay: Antibacterial activity against vancomycin resistant Enterococcus faecium VanB clinical isolate by broth microdilution method; format: functional
Enterococcus faecium [13] = assay: Antibacterial activity against vancomycin resistant Enterococcus faecium VanA clinical isolate by broth microdilution method; format: functional
Enterococcus faecalis [14] = assay: Antibacterial activity against vancomycin resistant Enterococcus faecalis VanB clinical isolate by broth microdilution method; format: functional
Enterococcus faecalis [15] = assay: Antibacterial activity against vancomycin resistant Enterococcus faecalis VanA clinical isolate by broth microdilution method; format: functional
[16] = system: Staphylococcus saprophyticus; assay: Antibacterial activity against methicillin resistant coagulase-negative Staphylococcus saprophyticus clinical isolate by broth microdilution method; format: functional
[17] = Antibacterial activity against methicillin resistant coagulase-negative Staphylococcus hominis subsp. novobiosepticus clinical isolate by broth microdilution method; format: functional
[18] = system: Staphylococcus haemolyticus; assay: Antibacterial activity against methicillin resistant coagulase-negative Staphylococcus haemolyticus clinical isolate by broth microdilution method; format: functional
Staphylococcus capitis [19] = assay: Antibacterial activity against methicillin resistant coagulase-negative Staphylococcus capitis clinical isolate by broth microdilution method; format: functional
[20] = system: Staphylococcus auricularis; assay: Antibacterial activity against methicillin resistant coagulase-negative Staphylococcus auricularis clinical isolate by broth microdilution method; format: functional
[21] = system: Staphylococcus epidermidis; assay: Antibacterial activity against methicillin resistant Staphylococcus epidermidis clinical isolate by broth microdilution method; format: functional
Staphylococcus aureus [22] = assay: Antibacterial activity against methicillin resistant Staphylococcus aureus clinical isolate by broth microdilution method; format: functional
Enterococcus faecalis [23] = system: Enterococcus faecalis

For `CC(=O)N[C@@H]1[C@H](Oc2c3cc4cc2Oc2ccc(cc2Cl)[C@@H](O[C@@H]2O[C@@H](CO)[C@@H](O)[C@H](O)[C@@H]2NC(C)=O)[C@@H]2NC(=O)[C@H](NC(=O)[C@@H]4NC(=O)[C@H]4NC(=O)[C@@H](Cc5ccc(c(Cl)c5)O3)NC(=O)[C@H](N)c3ccc(O)c(c3)Oc3cc(O)cc4c3)c3ccc(O)c(c3)-c3c(O[C@H]4O[C@H](CO)[C@@H](O)[C@@H](O)[C@@H]4O)cc(O)cc3[C@@H](C(=O)O)NC2=O)O[C@@H](CO)[C@@H](O)[C@@H]1O`, the Activity (Enterococcus faecium [1]) was 100%, the Activity (Enterococcus faecium [2]) was 0% and the Activity (Enterococcus faecalis [3]) was 100%. For the same compound, the “Percent of isolates susceptible” value (Enterococcus faecalis [4]) was 0%, the Activity [5] was 88% and the Activity [6] was 88%. The Activity [7] was 88%, the Activity (Staphylococcus capitis [8]) was 88% and the Activity [9] was 88%. It also gave an Activity [10] of 81%, an Activity (Staphylococcus aureus [11]) of 32% and an MIC50 (Enterococcus faecium [12]) of 0.5 µg/mL (≈ 0.283 µM). For the same compound, the MIC90 (Enterococcus faecium [12]) was 1 µg/mL (≈ 0.566 µM), the MIC50 (Enterococcus faecium [13]) was 64 µg/mL (≈ 36.2 µM) and the MIC90 (Enterococcus faecium [13]) was > 128 µg/mL. The MIC (Enterococcus faecalis [14]) was 0.5 µg/mL (≈ 0.283 µM), the MIC50 (Enterococcus faecalis [15]) was 64 µg/mL (≈ 36.2 µM) and the MIC90 (Enterococcus faecalis [15]) was > 128 µg/mL. It also gave an MIC50 [16] of 4 µg/mL (≈ 2.26 µM), an MIC90 [16] of 32 µg/mL (≈ 18.1 µM) and an MIC50 [17] of 4 µg/mL (≈ 2.26 µM). The MIC90 [17] was 32 µg/mL (≈ 18.1 µM), the MIC50 [18] was 4 µg/mL (≈ 2.26 µM) and the MIC90 [18] was 32 µg/mL (≈ 18.1 µM). The MIC50 (Staphylococcus capitis [19]) was 4 µg/mL (≈ 2.26 µM), the MIC90 (Staphylococcus capitis [19]) was 32 µg/mL (≈ 18.1 µM) and the MIC50 [20] was 4 µg/mL (≈ 2.26 µM). The MIC90 [20] was 32 µg/mL (≈ 18.1 µM), the MIC50 [21] was 8 µg/mL (≈ 4.53 µM) and the MIC90 [21] was 16 µg/mL (≈ 9.05 µM). The Activity (Staphylococcus aureus [22]) was 32%, the MIC50 (Staphylococcus aureus [22]; Staphylococcus aureus) was 0.5 µg/mL (≈ 0.283 µM) and the MIC90 (Staphylococcus aureus [22]; Staphylococcus aureus) was 1 µg/mL (≈ 0.566 µM). For the same compound, the MIC50 (Enterococcus faecalis [23]) was “inactive” and the MIC90 (Enterococcus faecalis [23]) was “inactive”.
Work on `CC1(C)S[C@@H]2[C@H](NC(=O)[C@H](N)c3ccccc3)C(=O)N2[C@H]1C(=O)O` [AMPICILLIN] yielded an Activity (Enterococcus faecium [1]) of 22%, an Activity (Enterococcus faecium [2]) of 0% and an Activity (Enterococcus faecalis [3]) of 60%. The “Percent of isolates susceptible” value (Enterococcus faecalis [4]) was 81%, the MIC50 (Enterococcus faecium [12]) was 64 µg/mL (≈ 183 µM) and the MIC90 (Enterococcus faecium [12]) was 64 µg/mL (≈ 183 µM). For the same compound, the MIC50 (Enterococcus faecium [13]) was 64 µg/mL (≈ 183 µM), the MIC90 (Enterococcus faecium [13]) was 128 µg/mL (≈ 366 µM) and the MIC (Enterococcus faecalis [14]) was ≤ 0.25 µg/mL. For the same compound, the MIC50 (Enterococcus faecalis [15]) was 1 µg/mL (≈ 2.86 µM), the MIC90 (Enterococcus faecalis [15]) was 64 µg/mL (≈ 183 µM) and the MIC50 (Enterococcus faecalis [23]) was “inactive”. The MIC90 (Enterococcus faecalis [23]) was “inactive”.
